For the test, the target named is T1, K-RasG12C (1-169) (Homo sapiens, UniProt P01116, G12C).
T1 construct: Un-tagged recombinant K-Ras G12C (1-169) at 4 μM in Buffer A; hexahistidine (cleaved yes); made in house; host or cells: Escherichia coli BL21 (DE)
Kind of test: Mass spectrometric screen for extent of covalent labeling. The following applies: for percent covalent labeling at 10 µM: 10 micromolar; for Labeling % (10 micM) 24h: 10 micM compound, (plate) or (single) measurement. It counts as binding. The method, then:
Un-tagged recombinant K-Ras G12C (1-169) at 4 μM in Buffer A was reacted with inhibitors at 200 μM or 10 μM (2% DMSO final). At 2, 6, and 24 hrs, 10 μL aliquots were removed and the reactions were stopped by addition of 1 μL 2% formic acid. The extent of modification was determined by mass spectrometry.

[1] abbreviates: 2 h, 2 hrs, read-out: Percent reduction in activity of compound at 10 micromolar relative to control (no compound), 2 hrs.
Where [2] appears, read: 6 h, 6 hrs, read-out: Percent reduction in activity of compound at 10 micromolar relative to control (no compound), 6 hrs.
Where [3] appears, read: 24 h, 24 hrs, read-out: Percent reduction in activity of compound at 10 micromolar relative to control (no compound), 24 hrs.

Like-named read-outs stand apart in the source and are kept apart here.

In the case of `C=CS(=O)(=O)NC1CCN(C(=O)[C@@H](C)Oc2ccc(Cl)cc2Cl)CC1` [JO-02-115C], the percent covalent labeling at 10 µM is, setting by setting: under setting [1], at most 5%; under setting [2], at most 5%; under setting [3], at most 5%.

Consider `C=CS(=O)(=O)NC1CCN(C(=O)COc2cc(Cl)c(Cl)cc2Cl)CC1` [JO-02-115D], for which the percent covalent labeling at 10 µM by setting is: under setting [1], at most 5%; under setting [2], at most 5%; under setting [3], 20 to 40%.

With `C=CS(=O)(=O)NC1CCN(C(=O)C(C)Oc2cc(Cl)c(Cl)cc2Cl)CC1` (centres unmarked) [JO-02-116A], the percent covalent labeling at 10 µM is, setting by setting: under setting [1], at most 5%; under setting [2], at most 5%; under setting [3], at most 5%.

For `C=CS(=O)(=O)NC1CCN(C(=O)COc2nc(Cl)c(Cl)cc2Cl)CC1` [JO-02-116B], the percent covalent labeling at 10 µM is at most 5% under setting [1], at most 5% under setting [2] and at most 5% under setting [3].

For the molecule `C=CS(=O)(=O)NCC(=O)Nc1cc(-c2cccs2)n[nH]1` [JO-02-125], the percent covalent labeling at 10 µM is at most 5% under setting [1], at most 5% under setting [2] and 20 to 40% under setting [3].

Take `C=CS(=O)(=O)NCC(=O)Nc1cc(-c2ccc(Cl)cc2)n[nH]1` [JO-02-139E]: the percent covalent labeling at 10 µM runs as follows: under setting [1], at most 5%; under setting [2], at most 5%; under setting [3], at most 5%.

As for `C=CS(=O)(=O)NC1CCN(C(=O)CNc2cc(Cl)c(Cl)cc2I)CC1` [JO-02-144], the percent covalent labeling at 10 µM is, setting by setting: under setting [1], at most 5%; under setting [2], 5 to 20%; under setting [3], above 60%.

`O=C(NC1CCN(C(=O)CNc2cc(Cl)c(Cl)cc2I)CC1)C1CO1` (centres unmarked) [JO-02-152]: the percent covalent labeling at 10 µM under setting [1] is at most 5%, the percent covalent labeling at 10 µM under setting [2] was at most 5% and the percent covalent labeling at 10 µM under setting [3] is 20 to 40%.

In the case of `C=CC(=O)N1CCN(C(=O)CNc2cc(Cl)c(Cl)cc2I)CC1` [JO-02-155], the percent covalent labeling at 10 µM reads like this: under setting [1], at most 5%; under setting [2], 5 to 20%; under setting [3], 40 to 60%.

`C=CC(=O)N1CC[C@@H](NC(=O)CNc2cc(Cl)c(Cl)cc2I)C1` [JO-02-157A (R)]: the percent covalent labeling at 10 µM is, setting by setting: under setting [1], at most 5%; under setting [2], at most 5%; under setting [3], at most 5%.

As to `C=CC(=O)N1CC[C@H](NC(=O)CNc2cc(Cl)c(Cl)cc2I)C1` [JO-02-157B (S)], the percent covalent labeling at 10 µM by setting is: under setting [1], at most 5%; under setting [2], at most 5%; under setting [3], 5 to 20%.

Take `C=CC(=O)N1CCN(C(=O)COc2ccc(Cl)cc2Cl)CC1` [JO-02-172]: the “Labeling % (10 micM) 24h” value is recorded as “+ (plate) (+ <=5%)”. Where the note is “Table 5”, the “Labeling % (10 micM) 24h” value is “+ (plate) (+ <=5%)”.

With `N#CC1(NC(=O)C2CCN(C(=O)COc3ccc(Cl)cc3Cl)CC2)CC1` [Ras-001], the percent covalent labeling at 10 µM under setting [1] is at most 5%, the percent covalent labeling at 10 µM under setting [2] is at most 5% and the percent covalent labeling at 10 µM under setting [3] was at most 5%.

For the molecule `C=CC(=O)NC1CCN(C(=O)COc2c(Cl)cc(Cl)cc2Cl)CC1` [Ras-002], the percent covalent labeling at 10 µM is at most 5% under setting [1], at most 5% under setting [2] and at most 5% under setting [3].

`C=CC(=O)NC1CCN(C(=O)Cn2cnc3ccccc32)CC1` [Ras-003]: the percent covalent labeling at 10 µM is at most 5% under setting [1], at most 5% under setting [2] and at most 5% under setting [3].

On to `C=CC(=O)NC1CCN(C(=O)Cn2ncc3ccccc32)CC1` [Ras-004], for which the percent covalent labeling at 10 µM is, setting by setting: under setting [1], at most 5%; under setting [2], at most 5%; under setting [3], at most 5%.

`C=CC(=O)NC1CCN(C(=O)CCn2cnc3ccccc32)CC1` [Ras-005]: the percent covalent labeling at 10 µM by setting is: under setting [1], at most 5%; under setting [2], at most 5%; under setting [3], at most 5%.

In the case of `C=CC(=O)NC1CCN(C(=O)CCn2ncc3ccccc32)CC1` [Ras-006], the percent covalent labeling at 10 µM was at most 5% under setting [1], at most 5% under setting [2] and at most 5% under setting [3].

For `CN(C)C/C=C/C(=O)NC1CCN(C(=O)COc2ccc(Cl)cc2Cl)CC1` [Ras-007], the percent covalent labeling at 10 µM is at most 5% under setting [1], at most 5% under setting [2] and at most 5% under setting [3].

As for `C=CS(=O)(=O)NC1CCN(C(=O)COc2c(Cl)cc(Cl)cc2Cl)CC1` [Ras-008], the percent covalent labeling at 10 µM by setting is: under setting [1], at most 5%; under setting [2], at most 5%; under setting [3], at most 5%.

For the molecule `C=CS(=O)(=O)NC1CCN(C(=O)Cn2ncc3ccccc32)CC1` [Ras-009], the percent covalent labeling at 10 µM by setting is: under setting [1], at most 5%; under setting [2], at most 5%; under setting [3], at most 5%.

`C=CS(=O)(=O)NC1CCN(C(=O)CCn2ncc3ccccc32)CC1` [Ras-010]: the percent covalent labeling at 10 µM by setting is: under setting [1], at most 5%; under setting [2], at most 5%; under setting [3], at most 5%.

Consider `C=CS(=O)(=O)NC1CCN(C(=O)COc2cc(C(F)(F)F)c(Cl)cc2Cl)CC1` [Ras-011], for which the percent covalent labeling at 10 µM reads like this: under setting [1], at most 5%; under setting [2], at most 5%; under setting [3], 20 to 40%.

In the case of `C=CS(=O)(=O)NC1CCN(C(=O)CCn2cnc3ccccc32)CC1` [Ras-012], the percent covalent labeling at 10 µM is, setting by setting: under setting [1], at most 5%; under setting [2], at most 5%; under setting [3], at most 5%.

On to `C=CS(=O)(=O)NC1CCN(C(=O)COc2cc(C#N)c(Cl)cc2Cl)CC1` [Ras-013], for which the percent covalent labeling at 10 µM is at most 5% under setting [1], at most 5% under setting [2] and 5 to 20% under setting [3].

Take `C=CS(=O)(=O)NC1CCN(C(=O)Cn2cnc3ccccc32)CC1` [Ras-014]: the percent covalent labeling at 10 µM under setting [1] was at most 5%, the percent covalent labeling at 10 µM under setting [2] is at most 5% and the percent covalent labeling at 10 µM under setting [3] is at most 5%.

Take `C=CS(=O)(=O)NC1CCN(C(=O)COc2ccc(Cl)cc2Br)CC1` [Ras-015]: the percent covalent labeling at 10 µM reads like this: under setting [1], at most 5%; under setting [2], at most 5%; under setting [3], 20 to 40%.

Turning to `C=CS(=O)(=O)NC1CCN(C(=O)COc2ccc(Cl)cc2NC(C)=O)CC1` [Ras-016], the percent covalent labeling at 10 µM is at most 5% under setting [1], at most 5% under setting [2] and at most 5% under setting [3].

`C=CS(=O)(=O)NC1CCN(C(=O)COc2ccc(Cl)cc2F)CC1` [Ras-017]: the percent covalent labeling at 10 µM under setting [1] was at most 5%, the percent covalent labeling at 10 µM under setting [2] was at most 5% and the percent covalent labeling at 10 µM under setting [3] was at most 5%.

Consider `C=CS(=O)(=O)NC1CCN(C(=O)COc2ccc(Cl)cc2C)CC1` [Ras-018], for which the percent covalent labeling at 10 µM was at most 5% under setting [1], at most 5% under setting [2] and 20 to 40% under setting [3].

For `C=CS(=O)(=O)NC1CCN(C(=O)COc2cc(N)c(Cl)cc2Cl)CC1` [Ras-019], the percent covalent labeling at 10 µM is, setting by setting: under setting [1], at most 5%; under setting [2], at most 5%; under setting [3], 5 to 20%.

For the molecule `C=CS(=O)(=O)NC1CCN(C(=O)COc2ccc(Cl)cc2C(=O)OC)CC1` [Ras-020], the percent covalent labeling at 10 µM was at most 5% under setting [1], at most 5% under setting [2] and at most 5% under setting [3].

In the case of `C=CS(=O)(=O)NC1CCN(C(=O)COc2ccc(Cl)cc2C#N)CC1` [Ras-021], the percent covalent labeling at 10 µM reads like this: under setting [1], at most 5%; under setting [2], at most 5%; under setting [3], at most 5%.

Take `C=CS(=O)(=O)NC1CCN(C(=O)COc2cc(NC(C)=O)c(Cl)cc2Cl)CC1` [Ras-022]: the percent covalent labeling at 10 µM under setting [1] was at most 5%, the percent covalent labeling at 10 µM under setting [2] is at most 5% and the percent covalent labeling at 10 µM under setting [3] is at most 5%.

On to `C=CS(=O)(=O)NC1CCN(C(=O)COc2ccc(Cl)cc2C(N)=O)CC1` [Ras-023], for which the percent covalent labeling at 10 µM under setting [1] was at most 5%, the percent covalent labeling at 10 µM under setting [2] is at most 5% and the percent covalent labeling at 10 µM under setting [3] is at most 5%.

In the case of `C=CS(=O)(=O)NC1CCN(C(=O)COc2cc(NC)c(Cl)cc2Cl)CC1` [Ras-024], the percent covalent labeling at 10 µM was at most 5% under setting [1], at most 5% under setting [2] and at most 5% under setting [3].

As to `C=CS(=O)(=O)NC1CCN(C(=O)COc2ccc(Cl)cc2C(=O)N(C)C)CC1` [Ras-025], the percent covalent labeling at 10 µM was at most 5% under setting [1], at most 5% under setting [2] and at most 5% under setting [3].

`C=CS(=O)(=O)NC1CCN(C(=O)COc2cc(N(C)C)c(Cl)cc2Cl)CC1` [Ras-026]: the percent covalent labeling at 10 µM was at most 5% under setting [1], at most 5% under setting [2] and 5 to 20% under setting [3].

As to `C=CS(=O)(=O)NC1CCN(C(=O)COc2cc(OCCN)c(Cl)cc2Cl)CC1` [Ras-027], the percent covalent labeling at 10 µM is, setting by setting: under setting [1], at most 5%; under setting [2], at most 5%; under setting [3], at most 5%.
